Laboratory results published in patent US12268901B2, “Targeting cell tropism receptors to inhibit cytomegalovirus infection” (priority 2017, dated 2025).
“Also recorded” adds a separate entry of the source.

Legend:
Format in all cases: cell-based, Human cytomegalovirus (HCMV)
[1] = system: TB40E virus infection of epithelial cell lines; test: Peptide blocking assay, infection of several epithelial cell lines (percent GFP positive cells); settings: Peptide 1 100 μg/ml, MOI=2.0, 2 dpi
Procedure: FIG. 10. […] Peptide 1 (100 μg/ml), or DMSO alone was preincubated with TB40E virus, followed by infection of the indicated epithelial cell lines (MOI=2.0). Cells were fixed and imaged for GFP and DNA at 2 dpi. […] Values indicate the mean percentage of infected cells of three experiments±SD. **p<0.01; ***p<0.001.
(§1) The noted synthetic peptides (100 ug/ml each or as described) were mixed with TB40E-GFP virus (1.2×10^6 PFU) and incubated at 37° C. for 2 h by rocking. The resulting samples were then subjected to the virus binding or infection assay.

[2] = system: HCMV infection of ARPE19 epithelial cells; test: Peptide blocking assay, infection of ARPE19 cells (percent GFP or IE positive cells); settings: peptide 1 100 μg/ml
Procedure: (A) Different amounts of peptide 1 were preincubated with TB40E-GFP virus and the mixture applied to ARPE19. Viral DNA levels were quantified by qPCR. (B) The results in (A) are presented as the relative amount of viral DNA relative to the DMSO control. (C) TB40E-GFP virus was preincubated with peptide 1 (100 μg/ml), or DMSO, followed by infection of ARPE19 cells (MOI=2.0). Cells were imaged for GFP expression at 2 dpi (D2) and 7 dpi (D7). (D) TB40E-GFP or BADrUL131-GFP virus, both expressing PC, were preincubated with peptide 1 (100 μg/ml), or DMSO prior to infection of ARPE19 cells (MOI=2.0). Cells were fixed and imaged for GFP at 2 dpi. All data represent the mean of n=3 experiments+/−SD. (E) Culture media supernatants from (C) were harvested on the indicated dpi and assayed for infectious virus by plaque assay. Values indicate the mean percent infected cells of 3 independent experiments±SD. ****p<0.0001.
FIG. 9. […] TB40E-GFP encoding the viral PC or AD169 lacking PC were preincubated with peptide 1 (100 μg/ml) and then infected on ARPE19 epithelial cells or HEL fibroblasts (MOI=2.0). Cells were fixed, permeabilized, stained for DNA, immunostained for anti-immediate early protein (IE) and imaged. […] Values indicate the mean percentage of infected cells of n=3 experiments±SD. **p<0.01; ***p<0.001.
FIG. 11. Each of the short peptides (aa sequences listed in Table 4; 150 uM), Peptide 1 (32.6 μM), or DMSO alone was preincubated with TB40E virus, followed by infection of ARPE19 cell lines (MOI=2.0). Cells were fixed and imaged for GFP and DNA at 2 dpi. Quantitation data indicating the percent GFP positive cells.
Live cell images: Phase and GFP signal images were captured on a Zeiss microscope (Zeiss AxioObserver Z1) at 10× magnification. Fixed cell images: cells were washed with PBS (Life Technologies) and fixed with 4% formalin in PBS (Sigma). DNA was stained with Hoechst 33342 dye (Life Technologies). The fixed cells were imaged using an Image Xpress Micro (IXM, Molecular Devices) at 4× magnification. Images were analyzed with MetaXpress imaging software (Molecular Devices) to determine the total cells per well and the percentage of infected cells (GFP positive) in each well. For IE immunostaining: fixed cells were permeabilized with 0.2% Triton X-100 (Sigma) in PBS. Blocking was performed with 1% BSA (Calbiochem, 2930) in PBS with 0.3M glycine (Sigma). Cells were then incubated in antibody targeting the major IE proteins (IE, EMD Millipore, MAB8131) diluted in 1% BSA in PBS. Cells were then incubated in secondary antibody (Texas Red-conjugated goat anti-mouse IgG2A, Southern Biotech, 1080-07) in PBS containing 1% BSA.
At 2 dpi with HCMV TB40E-GFP virus at the indicated MOI, ARPE19 cells were fixed with 4% formaldehyde and nuclei stained with Hoechst 33342. ARPE19 cells were imaged on an automated IXM scanning microscope. Numbers of infected cells were determined by calculating the percent GFP positive cells using MetaXpress software.
as §1

[3] = system: TB40E-GFP virus binding to ARPE19 cells; test: Peptide blocking assay, cell-binding virus assay (viral DNA by qPCR); settings: different amounts of Peptide 1 preincubated with virus at 37° C. for 2 h, applied to ARPE19 cells at 4° C. for 2 h
Procedure: The shPDGFRA, shOR14I1 and shDMBT1 transduced ARPE19 cells were chilled on ice for 20 min and then incubated with chilled TB40E-GFP at the indicated MOT on ice for 1 h. The cells were then washed ten times with cold PBS. Cellular DNA and cell-associated viral DNA were isolated using a DNeasy Blood & Tissue Kit (Qiagen). Viral DNA (UL83) and host DNA ((β-ACTIN) was quantified by real-time quantitative PCR as described (E et al., J Virol 88, 2279-2290 (2014)).
DNA was isolated from infected ARPE cells using the Dneasy Blood and Tissue DNA mini kit (Qiagen) according to the manufacturer's instructions. Viral genomes were quantified with a primer pair (pp549s and pp812as) and a probe (pp770s) for UL83 (3), and the number of viral genomes normalized to the number of cellular copies of β-ACTIN with a previously described set of primers and probe (4). Unknown sample values were determined on the basis of a standard curve of known copy numbers of UL83 (AD169-BAC) and β-ACTIN (pAB1-bactin-PCRscript) (kind gifts from Donald Coen, Harvard Medical School). […] Real-time PCR was performed and analyzed by using a ViiA7 Real-Time PCR System (Applied Biosystems). […]
Viral binding to ARPE19 cells was evaluated in the presence of Sf9-OR14I1 membrane particles. […] After washing with cold PBS, viral DNA levels were quantified by qPCR. […] After cold PBS washing, viral DNA levels were quantified by qPCR. […]

“MDNLTKVTEFLLMEFSGIWELQVLHA (N-terminal fragment of OR14I1) [Peptide 1, synthetic peptide representing the N-terminus of OR14I1, position 1-26]” was tested, and the “PC+ virus infection of multiple epithelial cell lines (percent GFP positive cells)” value [1] was “prevented PC+ virus infection; also recorded: inhibits HCMV infection of several epithelial cell lines”, the “anti-viral action versus presence of viral PC” value ([2]; TB40E-GFP encoding PC or AD169 lacking PC, MOI=2.0) was “dependent on the presence of the PC” and the “anti-viral action versus viral strain” value ([2]; TB40E-GFP or BADrUL131-GFP, MOI=2.0, 2 dpi) was “independent of viral strain”. For the same sequence, the “HCMV infection of ARPE19 epithelial cells (percent IE positive cells)” value ([2]; TB40E-GFP, MOI=2.0) was “blocks HCMV infection of ARPE19 epithelial cells” and the “TB40E-GFP virus binding to ARPE19 cells (viral DNA by qPCR)” value [3] was “sufficient to prevent for TB40E-GFP virus binding ARPE19 cells”.
